Assay results reported in PubChem BioAssay AID2060898 (Molecular Pharmacology Branch, DTP, NCI, 2025).
Blank lines part the entries; values can stand above or below the compound they belong to.

Test system: 616215-338-R-J1-PDC complex spheroid viability
Assay: Anticancer human tumor 616215-338-R-J1-PDC patient-derived colon adenocarcinoma cell line growth inhibition [RAS]
Conditions: for IC50: curve of first compound; for viability, T/C: stronger effect = lower value
Method in brief: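 Multi-cell-type spheroids: tumor cells plus HUVEC endothelial cells and mesenchymal stem cells. RAS-pathway inhibitors were combined with targeted agents, each dosed in half-log steps down from clinical Cmax, or from 10 microM when Cmax was unknown.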

[1] = second compound 0.00316 µM, first compound 0.0316 µM
[2] = second compound 0.00316 µM, first compound 0.1 µM
[3] = second compound 0.00316 µM, first compound 0.316 µM
[4] = second compound 0.00316 µM, first compound 1 µM
[5] = second compound 0.01 µM, first compound 0.0316 µM
[6] = second compound 0.01 µM, first compound 0.1 µM
[7] = second compound 0.01 µM, first compound 0.316 µM
[8] = second compound 0.01 µM, first compound 1 µM
[9] = second compound 0.0316 µM, first compound 0.0316 µM
[10] = second compound 0.0316 µM, first compound 0.1 µM
[11] = second compound 0.0316 µM, first compound 0.316 µM
[12] = second compound 0.0316 µM, first compound 1 µM
[13] = second compound 0.1 µM, first compound 0.0316 µM
[14] = second compound 0.1 µM, first compound 0.1 µM
[15] = second compound 0.1 µM, first compound 0.316 µM
[16] = second compound 0.1 µM, first compound 1 µM
[17] = second compound 0.316 µM, first compound 0.0316 µM
[18] = second compound 0.316 µM, first compound 0.1 µM
[19] = second compound 0.316 µM, first compound 0.316 µM
[20] = second compound 0.316 µM, first compound 1 µM
[21] = second compound 1 µM, first compound 0.0316 µM
[22] = second compound 1 µM, first compound 0.1 µM
[23] = second compound 1 µM, first compound 0.316 µM
[24] = second compound 1 µM, first compound 1 µM
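Further: spheroids exposed to agents for seven days before viability readout.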
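Wherever viability, T/C is given: 100% = DMSO vehicle control viability.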

- IC50 (second compound 0.00316 µM): > 1 µM
- IC50 (second compound 0.01 µM): > 1 µM
- IC50 (second compound 0.0316 µM): > 1 µM
- IC50 (second compound 0.1 µM): > 1 µM
- IC50 (second compound 0.316 µM): > 1 µM
- IC50 (second compound 1 µM): > 1 µM
SMILES: C=CC(=O)Nc1cc(Nc2nccc(-c3cn(C)c4ccccc34)n2)c(OC)cc1N(C)CCN(C)C + C=CC(=O)N1CCN(c2nc(OCC3CCCN3C)nc3c(F)c(-c4nc(N)cc(C)c4C(F)(F)F)c(Cl)cc23)C(C)C1
- viability, T/C (second compound 0.00316 µM, first compound 0.00316 µM): 95.8%
- viability, T/C (second compound 0.00316 µM, first compound 0.01 µM): 105%
- viability, T/C [1]: 107%
- viability, T/C [2]: 104%
- viability, T/C [3]: 106%
- viability, T/C [4]: 85.6%
- viability, T/C (second compound 0.01 µM, first compound 0.00316 µM): 93%
- viability, T/C (second compound 0.01 µM, first compound 0.01 µM): 108%
- viability, T/C [5]: 99%
- viability, T/C [6]: 101%
- viability, T/C [7]: 108%
- viability, T/C [8]: 101%
- viability, T/C (second compound 0.0316 µM, first compound 0.00316 µM): 101%
- viability, T/C (second compound 0.0316 µM, first compound 0.01 µM): 110%
- viability, T/C [9]: 107%
- viability, T/C [10]: 99.3%
- viability, T/C [11]: 108%
- viability, T/C [12]: 96%
- viability, T/C (second compound 0.1 µM, first compound 0.00316 µM): 103%
- viability, T/C (second compound 0.1 µM, first compound 0.01 µM): 102%
- viability, T/C [13]: 88.6%
- viability, T/C [14]: 106%
- viability, T/C [15]: 128%
- viability, T/C [16]: 74.2%
- viability, T/C (second compound 0.316 µM, first compound 0.00316 µM): 105%
- viability, T/C (second compound 0.316 µM, first compound 0.01 µM): 98.9%
- viability, T/C [17]: 99.4%
- viability, T/C [18]: 106%
- viability, T/C [19]: 109%
- viability, T/C [20]: 74.4%
- viability, T/C (second compound 1 µM, first compound 0.00316 µM): 96.9%
- viability, T/C (second compound 1 µM, first compound 0.01 µM): 98.3%
- viability, T/C [21]: 91%
- viability, T/C [22]: 114%
- viability, T/C [23]: 110%
- viability, T/C [24]: 68.9%

- IC50 (second compound 0.00316 µM): < 0.0316 µM
- IC50 (second compound 0.01 µM): < 0.0316 µM
- IC50 (second compound 0.0316 µM): < 0.0316 µM
- IC50 (second compound 0.1 µM): < 0.0316 µM
- IC50 (second compound 0.316 µM): < 0.0316 µM
- IC50 (second compound 1 µM): < 0.0316 µM
SMILES: CC(=O)OC12COC1CC(O)C1(C)C(=O)C(O)C3=C(C)C(OC(=O)C(O)C(NC(=O)OC(C)(C)C)c4ccccc4)CC(O)(C(OC(=O)c4ccccc4)C21)C3(C)C (stereo unspecified) + C=CC(=O)N1CCN(c2nc(OCC3CCCN3C)nc3c(F)c(-c4nc(N)cc(C)c4C(F)(F)F)c(Cl)cc23)C(C)C1
- viability, T/C [1]: 28%
- viability, T/C [2]: 22.4%
- viability, T/C [3]: 18.4%
- viability, T/C [4]: 18.6%
- viability, T/C (second compound 0.00316 µM, first compound 3.16 µM): 18.3%
- viability, T/C (second compound 0.00316 µM, first compound 10 µM): 24.5%
- viability, T/C [5]: 25.3%
- viability, T/C [6]: 21.4%
- viability, T/C [7]: 17.5%
- viability, T/C [8]: 20.5%
- viability, T/C (second compound 0.01 µM, first compound 3.16 µM): 18.7%
- viability, T/C (second compound 0.01 µM, first compound 10 µM): 21.2%
- viability, T/C [9]: 21.3%
- viability, T/C [10]: 23.9%
- viability, T/C [11]: 16.5%
- viability, T/C [12]: 18.5%
- viability, T/C (second compound 0.0316 µM, first compound 3.16 µM): 20%
- viability, T/C (second compound 0.0316 µM, first compound 10 µM): 21.9%
- viability, T/C [13]: 24.3%
- viability, T/C [14]: 20.6%
- viability, T/C [15]: 20.6%
- viability, T/C [16]: 16.4%
- viability, T/C (second compound 0.1 µM, first compound 3.16 µM): 21.1%
- viability, T/C (second compound 0.1 µM, first compound 10 µM): 21%
- viability, T/C [17]: 22.3%
- viability, T/C [18]: 22.3%
- viability, T/C [19]: 17.2%
- viability, T/C [20]: 18.5%
- viability, T/C (second compound 0.316 µM, first compound 3.16 µM): 20.8%
- viability, T/C (second compound 0.316 µM, first compound 10 µM): 23.9%
- viability, T/C [21]: 22.4%
- viability, T/C [22]: 20.4%
- viability, T/C [23]: 18.7%
- viability, T/C [24]: 17.3%
- viability, T/C (second compound 1 µM, first compound 3.16 µM): 23%
- viability, T/C (second compound 1 µM, first compound 10 µM): 24.8%

- IC50 (second compound 0.000949 µM): 2.24 µM
- IC50 (second compound 0.003 µM): 0.228 µM
- IC50 (second compound 0.00949 µM): < 0.0316 µM
- IC50 (second compound 0.03 µM): < 0.0316 µM
- IC50 (second compound 0.0949 µM): < 0.0316 µM
- IC50 (second compound 0.3 µM): < 0.0316 µM
SMILES: NC1c2ccccc2OC12CCN(c1cnc3c(N4CCCc5ncccc54)n[nH]c3n1)CC2 (stereo unspecified) + CCn1c(-c2cc(N3CCN(C)CC3)cnc2C(C)OC)c2c3cc(ccc31)-c1csc(n1)CC(NC(=O)C1CC1C)C(=O)N1CCCC(N1)C(=O)OCC(C)(C)C2
- viability, T/C (second compound 0.000949 µM, first compound 0.0316 µM): 81.9%
- viability, T/C (second compound 0.000949 µM, first compound 0.1 µM): 69.7%
- viability, T/C (second compound 0.000949 µM, first compound 0.316 µM): 60%
- viability, T/C (second compound 0.000949 µM, first compound 1 µM): 55.5%
- viability, T/C (second compound 0.000949 µM, first compound 3.16 µM): 51.2%
- viability, T/C (second compound 0.000949 µM, first compound 10 µM): 40.2%
- viability, T/C (second compound 0.003 µM, first compound 0.0316 µM): 73.5%
- viability, T/C (second compound 0.003 µM, first compound 0.1 µM): 60.6%
- viability, T/C (second compound 0.003 µM, first compound 0.316 µM): 44.6%
- viability, T/C (second compound 0.003 µM, first compound 1 µM): 41.9%
- viability, T/C (second compound 0.003 µM, first compound 3.16 µM): 35.2%
- viability, T/C (second compound 0.003 µM, first compound 10 µM): 37.1%
- viability, T/C (second compound 0.00949 µM, first compound 0.0316 µM): 49.4%
- viability, T/C (second compound 0.00949 µM, first compound 0.1 µM): 48.4%
- viability, T/C (second compound 0.00949 µM, first compound 0.316 µM): 42.9%
- viability, T/C (second compound 0.00949 µM, first compound 1 µM): 42.2%
- viability, T/C (second compound 0.00949 µM, first compound 3.16 µM): 36.4%
- viability, T/C (second compound 0.00949 µM, first compound 10 µM): 31.1%
- viability, T/C (second compound 0.03 µM, first compound 0.0316 µM): 38.7%
- viability, T/C (second compound 0.03 µM, first compound 0.1 µM): 34.9%
- viability, T/C (second compound 0.03 µM, first compound 0.316 µM): 33.9%
- viability, T/C (second compound 0.03 µM, first compound 1 µM): 40.1%
- viability, T/C (second compound 0.03 µM, first compound 3.16 µM): 35.2%
- viability, T/C (second compound 0.03 µM, first compound 10 µM): 30.5%
- viability, T/C (second compound 0.0949 µM, first compound 0.0316 µM): 35.9%
- viability, T/C (second compound 0.0949 µM, first compound 0.1 µM): 42.6%
- viability, T/C (second compound 0.0949 µM, first compound 0.316 µM): 47.9%
- viability, T/C (second compound 0.0949 µM, first compound 1 µM): 42.2%
- viability, T/C (second compound 0.0949 µM, first compound 3.16 µM): 44.2%
- viability, T/C (second compound 0.0949 µM, first compound 10 µM): 34.6%
- viability, T/C (second compound 0.3 µM, first compound 0.0316 µM): 51.7%
- viability, T/C (second compound 0.3 µM, first compound 0.1 µM): 40.5%
- viability, T/C (second compound 0.3 µM, first compound 0.316 µM): 44.6%
- viability, T/C (second compound 0.3 µM, first compound 1 µM): 41.1%
- viability, T/C (second compound 0.3 µM, first compound 3.16 µM): 45.3%
- viability, T/C (second compound 0.3 µM, first compound 10 µM): 32.4%
